Experimental data: paper PMC11288311 (Cell chemical biology, 2022)

Experiments:
[1] = test system: endogenous LRH-1 in Huh7 hepatocytes; assay: qRT-PCR of LRH-1 targets in Huh7 hepatocytes; assay type: cell-based, human; conditions: Huh7, 24-hour treatment
LRH-1 K520A = assay: Luciferase reporter assay with LRH-1 K520A mutant; assay type: cell-based, human; conditions: K520A mutation, 30 μM, 24 hours
hLRH1 IEC Rag2-/- mice = assay: T cell transfer; assay type: in vivo, mouse; conditions: 20 mg/kg i.p., 16 days
hLRH-1 enteroids = assay: Gene expression in TNF-stimulated humanized LRH-1 mouse intestinal enteroids; assay type: cell-based; conditions: 1 μM overnight, not observed in LRH-1-deficient enteroids
[2] = test system: human LRH-1 (hLRH-1) in the liver; assay: Liver gene expression
mouse LRH-1 = mouse LRH-1 (Mus musculus, UniProt P45448); assay: Activation of mouse LRH-1 in vitro
[3] = Aqueous solubility by LC-MS in PBS; assay type: physicochemical; conditions: PBS pH 7.4, 25°C, 2 hours
LRH-1 LBD Y516A or K520A = assay type: binding, human; conditions: Y516A or K520A mutation

mouse LRH-1, sequence (P45448 whole entry): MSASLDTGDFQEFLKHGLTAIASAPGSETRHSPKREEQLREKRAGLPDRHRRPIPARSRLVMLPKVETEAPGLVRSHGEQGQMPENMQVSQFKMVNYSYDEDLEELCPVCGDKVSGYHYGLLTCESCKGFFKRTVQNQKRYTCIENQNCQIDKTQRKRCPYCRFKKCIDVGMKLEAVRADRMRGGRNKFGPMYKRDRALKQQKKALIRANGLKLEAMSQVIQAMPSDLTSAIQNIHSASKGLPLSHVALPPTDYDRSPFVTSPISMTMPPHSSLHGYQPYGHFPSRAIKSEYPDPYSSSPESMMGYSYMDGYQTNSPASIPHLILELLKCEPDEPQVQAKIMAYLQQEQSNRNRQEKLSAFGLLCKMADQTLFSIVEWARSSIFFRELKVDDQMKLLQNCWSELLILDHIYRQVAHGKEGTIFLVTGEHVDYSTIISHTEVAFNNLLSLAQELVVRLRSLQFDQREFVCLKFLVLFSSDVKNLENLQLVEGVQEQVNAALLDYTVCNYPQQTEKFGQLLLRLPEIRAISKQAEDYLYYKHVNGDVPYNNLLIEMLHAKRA

Row | Structure (SMILES) | Expression of LRH-1 targets SHP (NR0B2) and PLK3 [1] | Expression of de novo lipogenesis targets SREBF1, ACACB, FASN, SCD1 [1] | Reduction of activation versus WT LRH-1 (LRH-1 K520A) | Body weight at end of study relative to mean pre-treatment body weight (hLRH1 IEC Rag2-/- mice) [%] | Colon histology scores (hLRH1 IEC Rag2-/- mice) | Expression of LRH-1 targets Cyp8b1, Cyp11a1, Cyp11b1 in colonic crypts (hLRH1 IEC Rag2-/- mice) | Expression of Cyp11a1 and Il-10 (hLRH-1 enteroids) | Liver expression of lipogenic genes (Fasn, Acacb, Scd1) ([2]; 0.1, 1 or 10 mg/kg, five i.p. injections over three days) | Liver expression of Srebf1 ([2]; not statistically significant, p = 0.09 versus vehicle) | Activation of mouse LRH-1 (mouse LRH-1) | Aqueous solubility limit [3] [µM] | Decrease in binding affinity, mutant versus WT LRH-1 (LRH-1 LBD Y516A or K520A)
1 | C=C(c1ccccc1)[C@@]12CC[C@@H](O)[C@@H]1CC(CCCCCCCCCC(=O)O)=C2c1ccccc1 [Compound 10CA] | dose-dependently upregulates | downregulates | around 60% | ≤ 1 | markedly improved | strong upregulation | induces expression | downregulation of lipogenic genes | trends lower | poor activators of mouse LRH-1 | – | –
2 | C=C(c1ccccc1)[C@@]12CC[C@@H](O)[C@@H]1CC(CCCCCC)=C2c1ccccc1 [RJW100] | – | – | – | – | – | – | – | – | – | – | 2.9 | insensitive or less sensitive
